Experimental data: patent US9096605B2, “Pyrazolopyrimidine derivatives as PI3 kinase inhibitors” (GlaxoSmithKline LLC, priority 2011, dated 2015)

Target: T1, PI3K-beta (Homo sapiens, UniProt P42338)
T1 construct: made in house
Assay: HTRF in vitro profiling assay for PI3K inhibition (beta isoform)
Format: biochemical
Details: PI3K-beta enzyme pIC50 range, 200 pM enzyme, 100 uM ATP, 10 uM PIP2, 150 mM NaCl, corrected pIC50, read-out: PI3K-b Enz Activity
Description: HTRF In Vitro Profiling Assays for PI3K Inhibition
The PI3-Kinase profiling assays were developed to measure the compound-dependent inhibition of the alpha, beta, delta, and gamma isoforms of PI3K in an in vitro catalytic assay. This assay was developed and optimized from a kit produced by Upstate (Millipore catalog #33-017). Briefly, this procedure utilizes a pre-formed HTRF (Homogeneous Time-Resolved Fluorescence energy transfer) complex between four binding partners: 1) biotinylated PIP3, 2) GST tagged pleckstrin homology (PH) domain, 3) Europium labeled anti-GST monoclonal antibody, and 4) Streptavidin-Allophycocyanin (APC). The native PIP3 produced by PI 3-Kinase activity displaces biotin-PIP3 from the PH domain, resulting in the dissociation of the HTRF complex and a decrease in the fluorescence signal. The format of this assay is the same for all 4 isoforms of PI3K; the differences lie in the concentration of enzyme used to achieve the most robust signal. The alpha and delta assays are run at 400 pM enzyme; the beta assay is at 200 pM enzyme and the gamma assay is run at 1 nM enzyme. In addition, the alpha, beta and delta assays are run with 150 mM NaCl while the gamma assay is run in the absence of NaCl. The ATP concentration is 100 uM in the alpha, beta, and delta assays and 15 uM ATP in the gamma assay. All reactions are run at 10 uM PIP2
Compounds are serially diluted (3-fold in 100% DMSO) across a 384-well polypropylene mother plate from column 1 to column 12 and column 13 to column 24, to yield 11 concentrations for each test compound. Columns 6 and 18 contain only DMSO. Once titrations are made, […] is transferred to a 384-well low-volume assay plate (Greiner 784076). This assay plate contains three pharmacological controls (known PI3K inhibitors) and 3 assay controls: (1) Enzyme without inhibitor; (2) Buffer minus enzyme, and (3) Buffer minus enzyme plus native PIP3. DMSO is stamped into all wells of columns 6 and 18. PIP3 is added at 40 μM in 1× Reaction buffer (1 μL of 200 μM PIP3) to alternating rows of column 18 (wells 18 B, D, F, H, J, L, N, P). The no-enzyme control reactions are run in wells 18 A, C, E, G, I, K, M, O (0.1 μL of 100% DMSO).
The PI3-Kinase profiling assay was optimized using the HTRF kit provided by Upstate (Millipore). The assay kit contains seven reagents: 1) 4× Reaction Buffer; 2) native PIP2 (substrate); 3) Stop A (EDTA); 4) Stop B (Biotin-PIP3); 5) Detection Mix A (Streptavidin-APC); 6) Detection Mix B (Eu-labeled Anti-GST plus GST-tagged PH-domain); 7) Detection Mix C (KF). In addition, the following items were obtained or purchased: PI3Kinase (prepared by GSK BR&AD), dithiothreitol (Sigma, D-5545), Adenosine-5′-triphosphate (ATP, Teknova cat. # A0220), native PIP3 (1,2-dioctanoyl-sn-glycero-3-[phosphoinositil-3,4,5-triphosphate]tetraammonium salt (Avanti polar lipids, 850186P), DMSO (Sigma, 472301).
PI3Kinase Reaction Buffer is prepared by diluting the stock 1:4 with de-ionized water. Freshly prepared DTT is added at a final concentration of 5 mM on the day of use. Enzyme addition and compound pre-incubation are initiated by the addition of 2.5 μL of PI3K (at twice its final concentration) in 1× reaction buffer to all wells using a Multidrop Combi. Plates are incubated at room temperature for 15 minutes. Reactions are initiated by addition of 2.5 μL of 2× substrate solution (PIP2 and ATP in 1× reaction buffer) using a Multidrop Combi. Plates are incubated at room temperature for one hour. Reactions are quenched by the addition of 2.5 μL of stop solution (Stop A and Stop B pre-mixed at a ratio of 5:1, respectively) to all wells using the Multidrop Combi. […]

T1 sequence (P42338 whole entry): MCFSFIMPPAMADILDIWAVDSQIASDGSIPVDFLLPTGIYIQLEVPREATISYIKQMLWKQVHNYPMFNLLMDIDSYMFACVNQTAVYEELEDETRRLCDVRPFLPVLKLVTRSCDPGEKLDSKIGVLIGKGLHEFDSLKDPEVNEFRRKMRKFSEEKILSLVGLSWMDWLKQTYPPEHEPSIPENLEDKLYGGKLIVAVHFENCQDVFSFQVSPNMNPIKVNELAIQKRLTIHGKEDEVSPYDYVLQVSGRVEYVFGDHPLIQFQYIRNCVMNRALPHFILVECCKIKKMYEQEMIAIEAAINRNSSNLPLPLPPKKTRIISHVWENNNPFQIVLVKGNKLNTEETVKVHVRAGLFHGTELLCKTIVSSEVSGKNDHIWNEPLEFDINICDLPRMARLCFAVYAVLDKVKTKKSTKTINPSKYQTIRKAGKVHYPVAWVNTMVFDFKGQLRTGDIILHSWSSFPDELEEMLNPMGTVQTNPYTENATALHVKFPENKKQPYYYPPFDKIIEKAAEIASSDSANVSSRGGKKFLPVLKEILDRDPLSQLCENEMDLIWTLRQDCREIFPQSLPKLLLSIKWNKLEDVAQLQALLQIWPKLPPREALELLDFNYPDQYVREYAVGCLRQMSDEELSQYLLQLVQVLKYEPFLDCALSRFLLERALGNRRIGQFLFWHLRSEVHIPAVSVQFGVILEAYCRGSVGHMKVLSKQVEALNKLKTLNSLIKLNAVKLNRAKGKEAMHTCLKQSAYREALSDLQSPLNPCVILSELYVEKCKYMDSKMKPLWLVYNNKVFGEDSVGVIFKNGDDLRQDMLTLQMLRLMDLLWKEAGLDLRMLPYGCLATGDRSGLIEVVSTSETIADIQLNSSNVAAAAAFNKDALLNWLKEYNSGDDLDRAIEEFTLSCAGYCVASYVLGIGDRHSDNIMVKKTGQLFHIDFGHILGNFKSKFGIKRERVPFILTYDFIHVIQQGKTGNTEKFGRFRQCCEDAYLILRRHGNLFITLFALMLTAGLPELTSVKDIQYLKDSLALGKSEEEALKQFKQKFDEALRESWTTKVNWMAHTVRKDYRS
T1 sequence (P27986 whole entry partner): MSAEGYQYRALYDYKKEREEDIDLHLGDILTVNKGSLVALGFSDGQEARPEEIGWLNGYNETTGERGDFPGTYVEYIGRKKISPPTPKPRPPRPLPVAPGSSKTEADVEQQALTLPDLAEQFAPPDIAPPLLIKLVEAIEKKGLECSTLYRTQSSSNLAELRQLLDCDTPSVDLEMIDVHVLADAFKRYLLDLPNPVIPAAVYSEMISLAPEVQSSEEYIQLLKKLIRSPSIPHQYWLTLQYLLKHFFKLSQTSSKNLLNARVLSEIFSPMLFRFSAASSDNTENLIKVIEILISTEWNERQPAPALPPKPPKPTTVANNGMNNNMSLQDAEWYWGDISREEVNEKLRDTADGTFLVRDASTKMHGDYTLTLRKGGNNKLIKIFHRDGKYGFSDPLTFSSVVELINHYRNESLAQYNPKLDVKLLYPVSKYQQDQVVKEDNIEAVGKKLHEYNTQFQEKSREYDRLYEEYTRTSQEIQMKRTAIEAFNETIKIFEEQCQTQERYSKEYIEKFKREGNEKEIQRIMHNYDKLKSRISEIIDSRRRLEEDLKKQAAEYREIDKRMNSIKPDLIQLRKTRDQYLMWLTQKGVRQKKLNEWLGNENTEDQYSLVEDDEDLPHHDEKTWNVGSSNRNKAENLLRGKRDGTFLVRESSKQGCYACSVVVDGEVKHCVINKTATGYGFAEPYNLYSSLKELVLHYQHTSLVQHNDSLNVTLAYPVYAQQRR

Cc1nn2c(N)cc(-c3ccncc3)nc2c1Cc1cccc(C(F)(F)F)c1C [Example 6, 2-methyl-3-(2-methyl-3-(trifluoromethyl)benzyl)-5-(pyridin-4-yl)pyrazolo[1,5-a]pyrimidin-7-amine]
IC50: 0.0126 to 0.1 µM

Cc1c(Cc2cnn3c(Cl)cc(N4CCOCC4)nc23)cccc1C(F)(F)F [Example 10, 4-(7-chloro-3-(2-methyl-3-(trifluoromethyl)benzyl)pyrazolo[1,5-a]pyrimidin-5-yl)morpholine]
IC50: 0.126 to 1.26 µM

COc1cc(N2CCOCC2)nc2c(Cc3cccc(C(F)(F)F)c3C)cnn12 [Example 12, 4-(7-methoxy-3-(2-methyl-3-(trifluoromethyl)benzyl)pyrazolo[1,5-a]pyrimidin-5-yl)morpholine]
IC50: 0.126 to 1.26 µM

CC(=O)Nc1cc(N2CCOCC2)nc2c(Cc3cccc(C(F)(F)F)c3C)c(C)nn12 [Example 18, N-[2-methyl-3-{[2-methyl-3-(trifluoromethyl)phenyl]methyl}-5-(4-morpholinyl)pyrazolo[1,5-a]pyrimidin-7-yl]acetamide]
IC50: 0.126 to 1.26 µM

Cc1nn2c(N3CCOCC3)cc(N3CCOCC3)nc2c1Cc1cccc2ccccc12 [Example 28, 4,4′-(2-methyl-3-(naphthalen-1-ylmethyl)pyrazolo[1,5-a]pyrimidine-5,7-diyl)dimorpholine]
IC50: 0.126 to 1.26 µM

COc1cc(-c2ccncc2)nc2c(Cc3cccc(Cl)c3Cl)c(C)nn12 [Example 34, 3-(2,3-dichlorobenzyl)-7-methoxy-2-methyl-5-(pyridin-4-yl)pyrazolo[1,5-a]pyrimidine]
IC50: 0.126 to 1.26 µM

Cc1nn2c(-n3ccnc3)cc(N3CCOCC3)nc2c1Cc1cccc2ccccc12 [Example 44, 4-(7-(1H-imidazol-1-yl)-2-methyl-3-(naphthalen-1-ylmethyl)pyrazolo[1,5-a]pyrimidin-5-yl)morpholine]
IC50: 0.126 to 1.26 µM

Cc1ccccc1Cc1c(C)nn2c(-c3cn[nH]c3)cc(-c3ccncc3)nc12 [Example 49, 2-methyl-3-(2-methylbenzyl)-7-(1H-pyrazol-4-yl)-5-(pyridin-4-yl)pyrazolo[1,5-a]pyrimidine]
IC50: 0.126 to 1.26 µM

Cc1ccccc1Cc1c(C)n(C)n2c(=O)cc(-c3ccncc3)nc12 [Example 51, 1,2-dimethyl-3-(2-methylbenzyl)-5-(pyridin-4-yl)pyrazolo[1,5-a]pyrimidin-7(1H)-one]
IC50: 0.126 to 1.26 µM
